Molecules are shown by their SMILES. pIC50: −log10 of the molar value. Calls of active or inactive are those of the source. No cut-off for these calls is given here.

The results in this text go back to ChEMBL document CHEMBL2331155, “Polycyclic hybrid isoprenoids from a reed rhizosphere soil derived Streptomyces sp. CHQ-64” (J Nat Prod, 2013).

For assay [1], the system named is HCT-8. Kind of assay: Cytotoxicity against human HCT8 cells by MTT assay. In kind it is functional, cell-based. Background: Formazan colour is commonly taken as a measure of viable cells.
The test system of assay [2] is Bel-7402. The experiment in a line: Cytotoxicity against human Bel7402 cells by MTT assay. The class given is functional, cell-based.
The species named for assay [3] is Homo sapiens. The experiment in a line: Inhibition of NF-kappaB (unknown origin) expressed in LPS-stimulated Raw 264.7 cells pretreated for 2 hrs measured after 4 hrs of LPS-challenge by luciferase reporter assay. The class given is cell-based. In general terms: A reporter such as luciferase makes a cellular process visible.
The test system of assay [4] is A2780. The experiment in a line: Cytotoxicity against human A2780 cells by MTT assay. In kind it is functional, cell-based.
The test system of assay [5] is A549. Kind of assay: Cytotoxicity against human A549 cells by MTT assay. The class given is functional, cell-based.
Assay [6] addresses T1, DNA topoisomerase 1 (Homo sapiens) (UniProt P11387).
T1 sequence (whole entry): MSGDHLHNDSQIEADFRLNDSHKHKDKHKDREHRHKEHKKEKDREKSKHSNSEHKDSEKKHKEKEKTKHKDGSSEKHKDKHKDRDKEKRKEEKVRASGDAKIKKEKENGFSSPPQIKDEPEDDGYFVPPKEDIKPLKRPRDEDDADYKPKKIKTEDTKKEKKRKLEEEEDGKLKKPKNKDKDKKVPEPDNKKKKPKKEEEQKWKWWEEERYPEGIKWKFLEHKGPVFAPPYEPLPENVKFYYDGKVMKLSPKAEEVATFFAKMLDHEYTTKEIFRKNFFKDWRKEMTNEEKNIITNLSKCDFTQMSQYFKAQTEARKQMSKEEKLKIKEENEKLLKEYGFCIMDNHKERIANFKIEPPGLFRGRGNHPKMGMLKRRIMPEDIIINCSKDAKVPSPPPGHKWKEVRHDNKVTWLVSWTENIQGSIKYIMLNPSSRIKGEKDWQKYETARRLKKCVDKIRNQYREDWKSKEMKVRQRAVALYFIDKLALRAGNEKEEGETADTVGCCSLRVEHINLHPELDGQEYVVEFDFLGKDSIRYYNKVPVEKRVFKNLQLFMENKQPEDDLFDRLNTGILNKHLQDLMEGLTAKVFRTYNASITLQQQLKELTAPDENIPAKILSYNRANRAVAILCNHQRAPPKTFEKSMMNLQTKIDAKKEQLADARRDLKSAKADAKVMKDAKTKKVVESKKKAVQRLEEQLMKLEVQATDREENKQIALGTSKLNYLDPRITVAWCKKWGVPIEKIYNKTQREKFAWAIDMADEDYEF
The experiment in a line: Binding affinity to topoisomerase 1 (unknown origin).

In assay [7] the test system is BGC-823. The experiment in a line: Cytotoxicity against human BGC823 cells by MTT assay. The class given is functional, cell-based.
The target in assay [8] is Protein kinase C alpha type (Homo sapiens) (UniProt P17252). The experiment in a line: Binding affinity to PKC alpha (unknown origin).

The pIC50 is the negative decadic logarithm of the IC50, by convention in mol/L. High values mean a small IC50, low ones a large IC50. For `CC(C)[C@H]1C(=O)N[C@@H](C[C@]23C[C@H]4C(=C[C@H]2N(C=O)c2ccccc23)CC[C@H]2C(C)(C)CCC[C@]42C)C(=O)N1C` (mixture of isomers) [INDOTERTINE B], the negative logarithm of the IC50 (pIC50) was 5.16 in assay [1]; less than 5.00 in assay [2]; less than 5.00 in assay [4]; 5.31 in assay [5]; less than 5.00 in assay [7]. The inhibition result in assay [3] was “inactive”. The outcome in assay [6] and in assay [8] was inactive.

As for `CC(=O)O[C@H]1C(=O)[C@@]2(C)[C@H]([C@H](OC(=O)c3ccccc3)[C@]3(O)C[C@H](OC(=O)[C@H](O)[C@@H](NC(=O)c4ccccc4)c4ccccc4)C(C)=C1C3(C)C)[C@]1(OC(C)=O)CO[C@@H]1C[C@@H]2O` [PACLITAXEL], the negative logarithm of the IC50 (pIC50) in assay [2] is 8.22; in assay [4] it was more than 9.00; in assay [7], more than 9.00.

`C=C1CC[C@H]2C(C)(C)CCC[C@]2(C)[C@H]1C[C@@]12C[C@H]3C(=O)N4CCC[C@H]4C(=O)N3[C@@H]1Nc1ccccc12` [DRIMENTINE C]: the pIC50 in assay [1], in assay [2], in assay [4], in assay [5] and in assay [7] was less than 5.00 throughout. The inhibition entry in assay [3] is “inactive”. The outcome in assay [6] and in assay [8] was inactive.

With `C=C1CC[C@H]2C(C)(C)CCC[C@]2(C)[C@H]1C[C@@]12C[C@H]3C(=O)N(C)[C@@H](C(C)C)C(=O)N3[C@@H]1N(C=O)c1ccccc12` [DRIMENTINE H], the negative-log IC50 (pIC50) in assay [1], in assay [2], in assay [4], in assay [5] and in assay [7] was less than 5.00 in each case. Moreover, in assay [3], the inhibition result was “inactive”. The outcome in assay [6] and in assay [8] was inactive.
